Laboratory results from PMC11851464, “Development of a Spectrophotometric Assay for the Cysteine Desulfurase from Staphylococcus aureus” (Antibiotics, 2025).

What was measured:
[1] = molecular target: T1, cysteine desulfurase SufS (SaSufS) (Staphylococcus aureus, UniProt A0A0H2XHJ5); assay: spectrophotometric […] nm assay after […] h incubation; Ala-NDA assay (IC50 […]); UV-Vis of PLP adduct; assay type: biochemical
[2] = molecular target: T1, cysteine desulfurase SufS (SaSufS); assay: spectrophotometric […] nm assay after […] h incubation; UV-Vis of PLP adduct; assay type: biochemical

IC50 [1] [mM]	IC50 [2] [mM]	SMILES
0.062 ± 0.023	–	N[C@H]1CONC1=O [LCS, L-cycloserine]
–	2.17 ± 0.92	N[C@@H]1CON=C1O [DCS, D-cycloserine]
